Test systems include Candida albicans; Saccharomyces cerevisiae; Neisseria meningitidis; Pseudomonas aeruginosa; Klebsiella pneumoniae; Vibrio cholerae; Salmonella typhimurium.
Holding throughout (test): ≥ marks a high value that may be exact or a test limit, other limits are often not marked, values filed in µg/mL are converted to µM
Assay [1] concerns Stenotrophomonas maltophilia B32/4.
For assay [2], the system named is Klebsiella pneumoniae ATCC 700603.
The test system of assay [3] is Pseudomonas aeruginosa ATCC 27853.
In assay [4] the test system is Staphylococcus epidermidis RP62A.
For assay [5], the system named is Staphylococcus aureus ATCC 25923.
The test system of assay [6] is Staphylococcus epidermidis RP62A/1.
In assay [7] the test system is Acinetobacter baumannii NM8.
Assay [8] relates to Escherichia coli ATCC 25726.
Assay [9] relates to Candida albicans ATCC 90028.
Assay [10] deals with Tetragenococcus halophilus CGMCC 1.2492.
The subject of assay [11] is Bacillus thuringiensis serovar israelensis H14.
For assay [12], the system named is Klebsiella aerogenes CGMCC 1.2021.
For assay [13], the system named is Escherichia coli CGMCC 1.1369.
Assay [14] relates to Saccharomyces cerevisiae CGMCC 2.1619.
The subject of assay [15] is Bacillus subtilis CGMCC 1.88.
The subject of assay [16] is Alcaligenes faecalis CGMCC 1.924.
Assay [17] has as its system Enterobacter cloacae CGMCC 1.58.
Assay [18] has as its system Beauveria bassiana CGMCC 3.3576.
Assay [19] relates to Micrococcus luteus AB206228.
For assay [20], the system named is Corynebacterium glutamicum CGMCC 1.818.
Assay [21] deals with Candida albicans CMCC 98001.
Assay [22] deals with Proteus vulgaris CGMCC 1.1651.
In assay [23] the test system is Bacillus cereus CMCC 1.126.
For assay [24], the system named is Providencia rettgeri CMCC 49256.
Assay [25] has as its system Enterococcus faecalis CGMCC 1.100.
Assay [26] deals with Aspergillus flavus CGMCC 3.6433.
The test system of assay [27] is Acetobacterium wieringae CGMCC 1.2033.
In assay [28] the test system is Penicillium sp. ATCC 30106.
Assay [29] deals with Pseudomonas aeruginosa CMCC 10104.
In assay [30] the test system is Salmonella typhimurium CGMCC 1.1174.
In assay [31] the test system is Pseudomonas aeruginosa ATCC 9027.
The test system of assay [32] is Bacillus subtilis ATCC 9372.
For assay [33], the system named is Escherichia coli ATCC 8739.
Assay [34] has as its system Proteus vulgaris NCTC 4635.
Assay [35] concerns Staphylococcus aureus ATCC 6538.
Assay [36] deals with Staphylococcus haemolyticus.
Assay [37] has as its system Bacillus megaterium ATCC 9885.
For assay [38], the system named is Salmonella enterica subsp. enterica serovar Enteritidis.
Assay [39] deals with Escherichia coli 363 ATCC 11775.
Assay [40] deals with Enterobacter cloacae ATCC 11775.

Values after ≈ are worked out from the molar mass of the structure shown.

As for `CC[C@H](C)[C@H](N)C(=O)N[C@@H](CC(C)C)C(=O)N[C@@H](CCCCN)C(=O)N[C@@H](CCCCN)C(=O)N[C@@H](CC(C)C)C(=O)N[C@@H](CC(C)C)C(=O)N[C@@H](CO)C(=O)N[C@H](C(=O)N[C@@H](C)C(=O)N[C@@H](C)C(=O)NCC(=O)N[C@@H](CC(C)C)C(=O)N[C@@H](CC(C)C)C(=O)N[C@@H](CO)C(=O)N[C@@H](CC(N)=O)C(=O)N[C@@H](CC(C)C)C(N)=O)[C@@H](C)O` [ILKKLLSTAAGLLSNL], the MIC – broadly, the lowest concentration found to suppress growth – in assay [1] is at least 32 µM; in assay [2] it was 128 µM (≈ 212 µg/mL); in assay [3], 128 µM (≈ 212 µg/mL); in assay [4], at least 32 µM; in [5] it was 64 µM (≈ 106 µg/mL); in assay [6] it was 16 µM (≈ 26.5 µg/mL). The MIC is 16 µM (≈ 26.5 µg/mL) in assay [7], at least 32 µM in assay [8] and at least 32 µM in assay [9].
Regarding `CC[C@H](C)[C@H](NC(=O)[C@H](Cc1ccccc1)NC(=O)[C@H](CCCCN)NC(=O)[C@H](C)NC(=O)[C@@H](NC(=O)[C@H](CO)NC(=O)[C@H](CCCCN)NC(=O)[C@H](CCSC)NC(=O)[C@H](C)NC(=O)[C@H](CCCCN)NC(=O)[C@H](Cc1ccccc1)NC(=O)[C@H](Cc1c[nH]c2ccccc12)NC(=O)CNC(=O)[C@H](CCCCN)NC(=O)[C@@H](N)CCCN=C(N)N)[C@@H](C)CC)C(=O)N[C@@H](C)C(=O)N[C@@H](CCCCN)C(=O)N[C@@H](CCC(=O)O)C(=O)N[C@@H](CCCCN)C(=O)N[C@@H](CC(C)C)C(=O)N[C@@H](CCCCN)C(=O)N[C@@H](CCC(=O)O)C(=O)N[C@@H](Cc1cnc[nH]1)C(=O)N[C@@H](CC(C)C)C(=O)O` [RKGWFKAMKSIAKFIAKEKLKEHL], the MIC is 3.1 µM (≈ 8.95 µg/mL) in assay [10]; 12.5 µM (≈ 36.1 µg/mL) in assay [11]; 12.5 µM (≈ 36.1 µg/mL) in [12]; 25 µM (≈ 72.2 µg/mL) in [13]; at least 50 µM in assay [14]; 12.5 µM (≈ 36.1 µg/mL) in assay [15]. Moreover, the MIC in assay [16] was 3.1 µM (≈ 8.95 µg/mL); in assay [17], at least 50 µM; in assay [18] it was 6.2 µM (≈ 17.9 µg/mL); in assay [19], 3.1 µM (≈ 8.95 µg/mL); in assay [20], 3.1 µM (≈ 8.95 µg/mL); in [21], at least 50 µM. The MIC in assay [22] was found to be 6.2 µM (≈ 17.9 µg/mL); in assay [23], 6.2 µM (≈ 17.9 µg/mL); in [24], 6.2 µM (≈ 17.9 µg/mL); in assay [25] it was 25 µM (≈ 72.2 µg/mL); in assay [26] it was 3.1 µM (≈ 8.95 µg/mL); in [27], 3.1 µM (≈ 8.95 µg/mL). The values for the minimal inhibitory concentration (MIC) in assay [28], in assay [29] and in assay [30] were 3.1 µM (≈ 8.95 µg/mL), 6.2 µM (≈ 17.9 µg/mL) and 12.5 µM (≈ 36.1 µg/mL), respectively.
`CC[C@H](C)[C@H](N)C(=O)N[C@@H](CCCCN)C(=O)N[C@@H](CCCCN)C(=O)N[C@H](C(=O)N[C@@H](C)C(=O)N[C@@H](CO)C(=O)N[C@H](C(=O)O)C(C)C)C(C)C` [IKKVASV]: the MIC was 1380 µM (≈ 1020 µg/mL) in assay [31]; at least 1380 µM in [32]; at least 1380 µM in [33]; at least 1380 µM in [34]; over 1380 µM in assay [35].
Take `CC(C)C[C@H](NC(=O)[C@H](CC(C)C)NC(=O)[C@H](CCCCN)NC(=O)CNC(=O)[C@H](C)NC(=O)[C@@H](NC(=O)[C@H](CCCCN)NC(=O)[C@H](CC(C)C)NC(=O)[C@H](CC(C)C)NC(=O)[C@H](CC(=O)O)NC(=O)[C@@H](NC(=O)[C@@H](NC(=O)[C@@H](NC(=O)CN)C(C)C)C(C)C)[C@@H](C)O)[C@@H](C)O)C(=O)NCC(=O)N[C@@H](CC(N)=O)C(=O)N[C@@H](CC(C)C)C(=O)N[C@H](C(=O)NCC(=O)N[C@@H](CO)C(=O)N[C@@H](CC(C)C)C(=O)N[C@@H](CO)C(=O)NCC(N)=O)C(C)C` [GVVTDLLKTAGKLLGNLVGSLSG]: the minimal inhibitory concentration (MIC) in assay [36] is at least 100 µM; in assay [37], 12.5 µM (≈ 27.6 µg/mL); with Candida albicans, 150 µM (≈ 332 µg/mL); in assay [38], 25 µM (≈ 55.3 µg/mL); in the assay on Saccharomyces cerevisiae, at least 300 µM; in assay [5], 50.5 µM (≈ 112 µg/mL). The MIC with Neisseria meningitidis is at least 100 µM; in [39], 12.5 µM (≈ 27.6 µg/mL); against Pseudomonas aeruginosa it was 100 µM (≈ 221 µg/mL); in [40], at least 100 µM; in the assay on Klebsiella pneumoniae, 100 µM (≈ 221 µg/mL); with Vibrio cholerae, 25 µM (≈ 55.3 µg/mL). Moreover, the MIC against Salmonella typhimurium was at least 50 µM.
